Data taken from patent US9555039B2, “Piperidine derivatives and compositions for the inhibition of nicotinamide phosphoribosyltransferase (NAMPT)” (Forma TM, LLC., priority 2011, dated 2017).

Key:
[1] = biological target: T1, Recombinant His-tagged NAMPT (Homo sapiens, UniProt P43490); assay: Biochemical inhibition assay: NAMPT enzymatic reaction, NMN quantified by mass spectrometry; conditions: 33 nM NAMPT, 1 μM NAM, 100 μM PRPP, 2.5 mM ATP, 30 minutes at room temperature; read-out: Biochem IC50
T1 construct: His; host or cells: E. coli
T1 sequence (P43490 whole entry): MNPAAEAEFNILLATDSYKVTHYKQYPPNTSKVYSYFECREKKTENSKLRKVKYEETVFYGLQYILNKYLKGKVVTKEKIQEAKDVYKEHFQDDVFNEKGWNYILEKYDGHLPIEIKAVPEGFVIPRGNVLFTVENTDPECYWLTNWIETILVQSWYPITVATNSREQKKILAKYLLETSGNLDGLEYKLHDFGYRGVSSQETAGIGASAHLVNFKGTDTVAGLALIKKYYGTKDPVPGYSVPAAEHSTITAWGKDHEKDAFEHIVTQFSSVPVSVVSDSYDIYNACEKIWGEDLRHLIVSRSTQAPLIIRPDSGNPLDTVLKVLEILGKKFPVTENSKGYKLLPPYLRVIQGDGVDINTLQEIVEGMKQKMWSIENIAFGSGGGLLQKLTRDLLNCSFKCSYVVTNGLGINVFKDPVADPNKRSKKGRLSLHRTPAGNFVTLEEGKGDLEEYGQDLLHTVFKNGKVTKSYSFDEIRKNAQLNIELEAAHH
Method in brief: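 Reaction 30 min at room temperature with 1 μM NAM, 100 μM PRPP, 2.5 mM ATP (final), quenched with formic acid. NMN quantified by RapidFire electrospray MS, normalized to L-cystathionine; IC50 from percent inhibition versus DMSO.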

[2] = test system: A2780 cells; assay: In-vitro cell proliferation assay (SRB, 72 hours); format: cell-based; conditions: Homo sapiens, sulforhodamine B (SRB) assay
Method in brief: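 Viable cells measured by TCA fixation and SRB staining, absorbance 570 nm; % inhibition vs DMSO control after media-only background subtraction, interpolated between two bracketing concentrations.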

Row | SMILES | IC50 [1] | IC50 [2]
1 | O=C(NCCCCC1CCN(C(=O)c2ccc(F)c(F)c2)CC1)c1cc2cnccc2[nH]1 [N-(4-{1-[(3,4-difluorophenyl)carbonyl]piperidin-4-yl}butyl)-1H-pyrrolo[3,2-c]pyridine-2-carboxamide] | 56 nM | 20.6 nM
2 | O=C(NCCCCC1CCN(C(=O)c2ccc(F)c(F)c2)CC1)c1ccc2nccn2c1 [N-(4-{1-[(3,4-difluorophenyl)carbonyl]piperidin-4-yl}butyl)imidazo[1,2-a]pyridine-6-carboxamide] | 19 nM | 66.2 nM
3 | O=C(NCCCCC1CCN(C(=O)c2ccc(F)c(F)c2)CC1)c1cc2ccncc2s1 [N-(4-{1-[(3,4-difluorophenyl)carbonyl]piperidin-4-yl}butyl)thieno[2,3-c]pyridine-2-carboxamide] | 22.9 nM | 100 to 1000 nM
4 | COc1ccc(C(=O)N2CCC(CCCCNC(=O)c3cc4cnccc4[nH]3)CC2)cc1OC [N-(4-{1-[(3,4-dimethoxyphenyl)carbonyl]piperidin-4-yl}butyl)-1H-pyrrolo[3,2-c]pyridine-2-carboxamide] | 68.6 nM | 3 nM
5 | COc1ccc(C(=O)N2CCC(CCCCNC(=O)c3ccc4nccn4c3)CC2)cc1OC [N-(4-{1-[(3,4-dimethoxyphenyl)carbonyl]piperidin-4-yl}butyl)imidazo[1,2-a]pyridine-6-carboxamide] | 38.5 nM | 2.9 nM
6 | COc1ccc(C(=O)N2CCC(CCCCNC(=O)c3cc4ccncc4s3)CC2)cc1OC [N-(4-{1-[(3,4-dimethoxyphenyl)carbonyl]piperidin-4-yl}butyl)thieno[2,3-c]pyridine-2-carboxamide] | 32.6 nM | 6.9 nM
7 | O=C(NCCCCC1CCN(C(=O)c2cc(Cl)cc(Cl)c2)CC1)c1cc2cnccc2[nH]1 [N-(4-{1-[(3,5-dichlorophenyl)carbonyl]piperidin-4-yl}butyl)-1H-pyrrolo[3,2-c]pyridine-2-carboxamide] | 81.3 nM | 13 nM
8 | O=C(NCCCCC1CCN(C(=O)c2cc(Cl)cc(Cl)c2)CC1)c1ccc2nccn2c1 [N-(4-{1-[(3,5-dichlorophenyl)carbonyl]piperidin-4-yl}butyl)imidazo[1,2-a]pyridine-6-carboxamide] | 61.6 nM | 32.9 nM
9 | O=C(NCCCCC1CCN(C(=O)c2cc(Cl)cc(Cl)c2)CC1)c1cc2ccncc2s1 [N-(4-{1-[(3,5-dichlorophenyl)carbonyl]piperidin-4-yl}butyl)thieno[2,3-c]pyridine-2-carboxamide] | 30 nM | 51.3 nM
10 | COc1cc(OC)cc(C(=O)N2CCC(CCCCNC(=O)c3cc4cnccc4[nH]3)CC2)c1 [N-(4-{1-[(3,5-dimethoxyphenyl)carbonyl]piperidin-4-yl}butyl)-1H-pyrrolo[3,2-c]pyridine-2-carboxamide] | 74.1 nM | 2.6 nM
11 | COc1cc(OC)cc(C(=O)N2CCC(CCCCNC(=O)c3cc4ccncc4s3)CC2)c1 [N-(4-{1-[(3,5-dimethoxyphenyl)carbonyl]piperidin-4-yl}butyl)thieno[2,3-c]pyridine-2-carboxamide] | 57.1 nM | 20.2 nM
12 | O=C(NCCCCC1CCN(S(=O)(=O)c2cccc(Cl)c2)CC1)c1cc2cnccc2[nH]1 [N-(4-{1-[(3-chlorobenzene)sulfonyl]piperidin-4-yl}butyl)-1H-pyrrolo[3,2-c]pyridine-2-carboxamide] | 38.8 nM | 27.7 nM
13 | O=C(NCCCCC1CCN(C(=O)c2cccc(Cl)c2)CC1)c1ccc2nccn2c1 [N-(4-{1-[(3-chlorophenyl)carbonyl]piperidin-4-yl}butyl)imidazo[1,2-a]pyridine-6-carboxamide] | 17.1 nM | 22.3 nM
14 | O=C(NCCCCC1CCN(C(=O)c2cccc(Cl)c2)CC1)c1cc2ccncc2s1 [N-(4-{1-[(3-chlorophenyl)carbonyl]piperidin-4-yl}butyl)thieno[2,3-c]pyridine-2-carboxamide] | 33.4 nM | 45.5 nM
15 | CCOc1cccc(C(=O)N2CCC(CCCCNC(=O)c3cc4cnccc4[nH]3)CC2)c1 [N-(4-{1-[(3-ethoxyphenyl)carbonyl]piperidin-4-yl}butyl)-1H-pyrrolo[3,2-c]pyridine-2-carboxamide] | 85.1 nM | 11 nM
16 | CCOc1cccc(C(=O)N2CCC(CCCCNC(=O)c3ccc4nccn4c3)CC2)c1 [N-(4-{1-[(3-ethoxyphenyl)carbonyl]piperidin-4-yl}butyl)imidazo[1,2-a]pyridine-6-carboxamide] | 10.2 nM | 13.2 nM
17 | CCOc1cccc(C(=O)N2CCC(CCCCNC(=O)c3cc4ccncc4s3)CC2)c1 [N-(4-{1-[(3-ethoxyphenyl)carbonyl]piperidin-4-yl}butyl)thieno[2,3-c]pyridine-2-carboxamide] | 39.1 nM | 76.5 nM
18 | Cc1c(F)cccc1C(=O)N1CCC(CCCCNC(=O)c2cc3cnccc3[nH]2)CC1 [N-(4-{1-[(3-fluoro-2-methylphenyl)carbonyl]piperidin-4-yl}butyl)-1H-pyrrolo[3,2-c]pyridine-2-carboxamide] | 20.5 nM | 3.1 nM

Row | SMILES | IC50 [1] | IC50 [2]
19 | Cc1c(F)cccc1C(=O)N1CCC(CCCCNC(=O)c2ccc3nccn3c2)CC1 [N-(4-{1-[(3-fluoro-2-methylphenyl)carbonyl]piperidin-4-yl}butyl)imidazo[1,2-a]pyridine-6-carboxamide] | 13.1 nM | 3.5 nM
20 | Cc1c(F)cccc1C(=O)N1CCC(CCCCNC(=O)c2cc3ccncc3s2)CC1 [N-(4-{1-[(3-fluoro-2-methylphenyl)carbonyl]piperidin-4-yl}butyl)thieno[2,3-c]pyridine-2-carboxamide] | 6.8 nM | 3.2 nM
21 | COc1ccc(C(=O)N2CCC(CCCCNC(=O)c3cc4cnccc4[nH]3)CC2)cc1F [N-(4-{1-[(3-fluoro-4-methoxyphenyl)carbonyl]piperidin-4-yl}butyl)-1H-pyrrolo[3,2-c]pyridine-2-carboxamide] | 63.1 nM | 21 nM
22 | COc1ccc(C(=O)N2CCC(CCCCNC(=O)c3ccc4nccn4c3)CC2)cc1F [N-(4-{1-[(3-fluoro-4-methoxyphenyl)carbonyl]piperidin-4-yl}butyl)imidazo[1,2-a]pyridine-6-carboxamide] | 20.2 nM | 65.2 nM
23 | COc1ccc(C(=O)N2CCC(CCCCNC(=O)c3cc4ccncc4s3)CC2)cc1F [N-(4-{1-[(3-fluoro-4-methoxyphenyl)carbonyl]piperidin-4-yl}butyl)thieno[2,3-c]pyridine-2-carboxamide] | 71.4 nM | 100 to 1000 nM
24 | Cc1ccc(C(=O)N2CCC(CCCCNC(=O)c3cc4cnccc4[nH]3)CC2)cc1F [N-(4-{1-[(3-fluoro-4-methylphenyl)carbonyl]piperidin-4-yl}butyl)-1H-pyrrolo[3,2-c]pyridine-2-carboxamide] | 77.1 nM | 22.4 nM
25 | Cc1ccc(C(=O)N2CCC(CCCCNC(=O)c3cc4ccncc4s3)CC2)cc1F [N-(4-{1-[(3-fluoro-4-methylphenyl)carbonyl]piperidin-4-yl}butyl)thieno[2,3-c]pyridine-2-carboxamide] | 41.7 nM | 100 to 1000 nM
26 | O=C(NCCCCC1CCN(C(=O)c2cccc(F)c2)CC1)c1cc2cnccc2[nH]1 [N-(4-{1-[(3-fluorophenyl)carbonyl]piperidin-4-yl}butyl)-1H-pyrrolo[3,2-c]pyridine-2-carboxamide] | 16.4 nM | 3.3 nM
27 | O=C(NCCCCC1CCN(C(=O)c2cccc(F)c2)CC1)c1ccc2nccn2c1 [N-(4-{1-[(3-fluorophenyl)carbonyl]piperidin-4-yl}butyl)imidazo[1,2-a]pyridine-6-carboxamide] | 9.2 nM | 10.3 nM
28 | O=C(NCCCCC1CCN(C(=O)c2cccc(F)c2)CC1)c1cc2ccncc2s1 [N-(4-{1-[(3-fluorophenyl)carbonyl]piperidin-4-yl}butyl)thieno[2,3-c]pyridine-2-carboxamide] | 7.7 nM | 7.4 nM
29 | COc1cccc(C(=O)N2CCC(CCCCNC(=O)c3cc4ccncc4s3)CC2)c1 [N-(4-{1-[(3-methoxyphenyl)carbonyl]piperidin-4-yl}butyl)thieno[2,3-c]pyridine-2-carboxamide] | 26.1 nM | 11 nM
30 | COc1cc(Cl)ccc1C(=O)N1CCC(CCCCNC(=O)c2cc3cnccc3[nH]2)CC1 [N-(4-{1-[(4-chloro-2-methoxyphenyl)carbonyl]piperidin-4-yl}butyl)-1H-pyrrolo[3,2-c]pyridine-2-carboxamide] | 62.1 nM | 6.1 nM
31 | COc1cc(Cl)ccc1C(=O)N1CCC(CCCCNC(=O)c2ccc3nccn3c2)CC1 [N-(4-{1-[(4-chloro-2-methoxyphenyl)carbonyl]piperidin-4-yl}butyl)imidazo[1,2-a]pyridine-6-carboxamide] | 80.6 nM | 27 nM
32 | COc1cc(Cl)ccc1C(=O)N1CCC(CCCCNC(=O)c2cc3ccncc3s2)CC1 [N-(4-{1-[(4-chloro-2-methoxyphenyl)carbonyl]piperidin-4-yl}butyl)thieno[2,3-c]pyridine-2-carboxamide] | 15.5 nM | 13 nM
33 | O=C(NCCCCC1CCN(S(=O)(=O)c2ccc(Cl)cc2)CC1)c1cc2cnccc2[nH]1 [N-(4-{1-[(4-chlorobenzene)sulfonyl]piperidin-4-yl}butyl)-1H-pyrrolo[3,2-c]pyridine-2-carboxamide] | 49.9 nM | 27.5 nM
34 | O=C(NCCCCC1CCN(C(=O)c2ccc(Cl)cc2)CC1)c1cc2cnccc2[nH]1 [N-(4-{1-[(4-chlorophenyl)carbonyl]piperidin-4-yl}butyl)-1H-pyrrolo[3,2-c]pyridine-2-carboxamide] | 114 nM | 65.7 nM
35 | O=C(NCCCCC1CCN(C(=O)c2ccc(Cl)cc2)CC1)c1ccc2nccn2c1 [N-(4-{1-[(4-chlorophenyl)carbonyl]piperidin-4-yl}butyl)imidazo[1,2-a]pyridine-6-carboxamide] | 84.6 nM | 100 to 1000 nM
